Experimental data from ChEMBL document CHEMBL3045684, “Compatibility of traditional and novel acaricides with bumblebees (Bombus terrestris): a first laboratory assessment of toxicity and sublethal effects” (Pest Manag Sci, 2010).
Calls of active or inactive are those of the source. The calls are words filed in the database; no cut-off is given here.

What was measured:
[1] = test system: Bombus terrestris; experiment: Toxicity against po dosed worker Bombus terrestris (bumblebee) administered through sugar water for 11 weeks measured everyday for 3 days followed by once a week for 11 weeks; format: functional
[2] = test system: Bombus terrestris; experiment: Toxicity against worker Bombus terrestris (bumblebee) assessed as reduction in reproduction at 30 mg a.i./l, po administered through pollen for 11 weeks measured once a week for 11 weeks; format: functional; parameters: scale not given: the % may be the effect or the level left
[3] = test system: Bombus terrestris; experiment: Contact toxicity against worker Bombus terrestris (bumblebee) assessed as reduction in reproduction at 30 mg a.i./l applied on the dorsal thorax for 11 weeks measured once a week for 11 weeks relative to control; format: functional, organism-based
[4] = test system: Bombus terrestris; experiment: Toxicity against worker Bombus terrestris (bumblebee) assessed as mortality at 30 mg a.i./l, po administered through sugar water for 11 weeks measured everyday for 3 days followed by once a week for 11 weeks; format: functional
[5] = test system: Bombus terrestris; experiment: Toxicity against worker Bombus terrestris (bumblebee) assessed as mortality at 30 mg a.i./l, po administered through pollen measured after 7 weeks; format: functional; conditions: 1176 h
[6] = test system: Bombus terrestris; experiment: Contact toxicity against worker Bombus terrestris (bumblebee) assessed as mortality at 30 mg a.i./l applied on the dorsal thorax measured up to 1 week; format: functional, organism-based
[7] = test system: Bombus terrestris; experiment: Toxicity against worker Bombus terrestris (bumblebee) assessed as mortality at 30 mg a.i./l, po administered through pollen for 11 weeks measured everyday for 3 days followed by once a week for 11 weeks; format: functional
[8] = test system: Bombus terrestris; experiment: Contact toxicity against worker Bombus terrestris (bumblebee) assessed as mortality at 30 mg a.i./l applied on the dorsal thorax for 11 weeks measured everyday for 3 days followed by once a week for 11 weeks; format: functional

In the case of Cc1c(COC(=O)[C@@H]2[C@H](/C=C(\Cl)C(F)(F)F)C2(C)C)cccc1-c1ccccc1 (relative stereo) [BIFENTHRIN], the LC50 [1] is reported as 0.36 mgAi/L, the NOAEL [1] is reported as 0.03 mgAi/L and the Activity [2] is reported as 50%. The Activity [3] was “Active”, the mortality at 30 µg/mL [4] was 50% and the mortality at 30 µg/mL [5] was 100%. For the same molecule, the Activity [6] was “Active”, the mortality at 30 µg/mL [7] was 90% and the mortality at 30 µg/mL [8] was 100%.
